Measured values from patent US20100331233A1, “CRYSTAL OF XPA AND ERCC1 COMPLEX AND USES THEREOF” (priority 2007, published 2010).
No end group written: not given here.

Tests used:
[1] = tested on: NER activity in HeLa cell extracts; assay: In vitro NER assay: excision of a 1,3-intrastrand cisplatin adduct from plasmid in HeLa cell extract with XPA peptide; assay type: biochemical
[2] = target: T1, ERCC1-XPF (Homo sapiens, UniProt P07992); assay: Nuclease assay: incision of stem-loop DNA substrate by purified ERCC1-XPF; assay type: biochemical; settings: 92 μM peptide
T1 sequence (P07992 1-297): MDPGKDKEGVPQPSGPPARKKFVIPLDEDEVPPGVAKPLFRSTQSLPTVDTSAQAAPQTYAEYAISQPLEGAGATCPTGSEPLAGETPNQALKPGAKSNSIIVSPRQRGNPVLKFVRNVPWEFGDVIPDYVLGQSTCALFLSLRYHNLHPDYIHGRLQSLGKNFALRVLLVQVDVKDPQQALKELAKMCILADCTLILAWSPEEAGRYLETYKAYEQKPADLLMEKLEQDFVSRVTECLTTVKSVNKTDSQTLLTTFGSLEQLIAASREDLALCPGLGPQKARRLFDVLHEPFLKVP
T1 sequence (Q92889 1-916 partner): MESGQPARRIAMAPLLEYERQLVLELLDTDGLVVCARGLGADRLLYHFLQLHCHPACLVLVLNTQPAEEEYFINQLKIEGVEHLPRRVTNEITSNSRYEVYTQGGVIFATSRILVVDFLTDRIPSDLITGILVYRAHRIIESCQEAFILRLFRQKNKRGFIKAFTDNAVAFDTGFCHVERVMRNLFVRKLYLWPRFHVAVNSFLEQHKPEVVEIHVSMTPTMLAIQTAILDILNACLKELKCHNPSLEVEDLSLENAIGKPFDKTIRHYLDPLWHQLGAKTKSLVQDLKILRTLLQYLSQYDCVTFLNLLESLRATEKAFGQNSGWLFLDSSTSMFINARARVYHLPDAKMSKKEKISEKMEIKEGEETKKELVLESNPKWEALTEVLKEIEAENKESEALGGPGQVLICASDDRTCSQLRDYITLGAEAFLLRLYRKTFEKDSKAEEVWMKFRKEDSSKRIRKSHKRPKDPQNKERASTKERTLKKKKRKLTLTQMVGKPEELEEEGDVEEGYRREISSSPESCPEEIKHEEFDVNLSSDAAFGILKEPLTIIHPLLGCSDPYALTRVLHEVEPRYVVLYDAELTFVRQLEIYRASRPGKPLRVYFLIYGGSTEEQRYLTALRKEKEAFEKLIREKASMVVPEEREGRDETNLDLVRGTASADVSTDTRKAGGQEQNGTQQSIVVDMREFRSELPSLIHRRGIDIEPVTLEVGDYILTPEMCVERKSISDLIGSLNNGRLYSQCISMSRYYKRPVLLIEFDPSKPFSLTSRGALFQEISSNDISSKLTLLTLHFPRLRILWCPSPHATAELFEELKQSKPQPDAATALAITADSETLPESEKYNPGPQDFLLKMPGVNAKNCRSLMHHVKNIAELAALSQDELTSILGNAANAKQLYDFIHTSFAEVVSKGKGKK
Method: Nuclease assay. A substrate consisting of a 12 base pair stem with a 22 nucleotide loop (5′-[…](T)22[…]; SEQ ID NO:7) was 5′ end labeled using a T4 polynucleotide kinase and [γ-^32P]-ATP. […] The final reaction volume was 15 μl.

[3] = target: T2, ERCC192-214 (Homo sapiens, UniProt P07992); assay: 15N HSQC NMR chemical shift perturbation of 15N-labeled ERCC1; assay type: binding; settings: 15N HSQC spectrum of ERCC1-XPA complex; read-out: dissociation equilibrium constant implied by slow-exchange regime
T2 construct: an ERCC1 central domain fragment consisting of amino acids 92-214 preceded by an N-terminal hexahistidine tag; made in house; host or cells: E. coli BL21(DE3), M9 minimal media with 15N-labeled NH4Cl
T2 sequence (P07992 92-214): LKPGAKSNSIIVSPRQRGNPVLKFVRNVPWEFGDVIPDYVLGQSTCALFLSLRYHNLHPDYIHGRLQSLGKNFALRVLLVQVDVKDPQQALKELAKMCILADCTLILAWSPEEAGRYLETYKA
Method: FIG. 3 illustrates the binding of XPA67-80 in a shallow groove of ERCC1. (A) A comparison of the two dimensional HSQC spectra for ^15N-labeled ERCC192-214 in the presence and absence of an unlabeled XPA67-80 peptide. The ^15N HSQC spectra reveal significant chemical shift changes for some ERCC1 residues (labeled) in the absence or presence of unlabeled XPA67-80. (B) Combined average chemical shift perturbations are calculated as Δχave=[((Δχ1H)^2+(Δχ15N/5)^2)/2)]^1/2 for each backbone amide of ERCC1 and shown as a histogram.
NMR experiments and determination of the structure of XPA-ERCC1 complex. All NMR data were acquired in the NMR Buffer described above. […] Backbone assignments of the free ERCC192-214 and ERCC1-XPA67-80 complex were performed using a standard set of triple-resonance experiments: HNCA/HN(CO)CA, HN(CA)CB/HN(COCA)CB and HNCO/HN(CA)CO.
Identification of the ERCC1 binding site in complex with XPA. The binding site for XPA on the surface of ERCC1 (FIG. 2B) was identified using two dimensional HSQC experiments. […] The ^15N HSQC spectrum of the ERCC1-XPA complex is consistent with a slow-exchange regime, implying a dissociation equilibrium constant below 1 μM for the complex. The XPA binding site on the ERCC1 central domain was identified using the backbone assignments for […] alone and in complex with XPA (see below). […]

KIIDTGGGFILEEE [XPA67-80]
NER activity at 92 μM peptide ([1]; HeLa cell extract, 92 μM): completely abolishes NER activity
effect on NER excision of the lesion-containing oligonucleotide ([1]; HeLa cell free extract, plasmid with 1,3-cisplatin intrastrand crosslink, peptide 46 nM to 92 μM): inhibits the in vitro NER reaction
effect on intrinsic nuclease activity of ERCC1-XPF ([2]; 0.4 mM MnCl2): do not affect
effect on intrinsic nuclease activity of ERCC1-XPF ([2]; 0.4 mM MnCl2, listed as XPA peptide): has no effect
Kd [3]: < 1000 nM
